PubChem BioAssay (NCI)
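These data come from cells grown in 96-well plates and exposed to compound for 48 hours at five concentrations. Definition used: TGI = concentration required for complete inhibition of growth.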

Tests used:
Experiment in all cases: NCI anticancer screen, dose series, 48 h
[1] = test system: A549 NSCLC
[2] = test system: COLO 205 colon
[3] = test system: EKVX NSCLC
[4] = test system: HCC-2998 colon
[5] = test system: IGROV1 ovarian
[6] = test system: KM12 colon
[7] = test system: MDA-MB-231 breast
[8] = test system: MDA-N
[9] = test system: NCI/ADR-RES ovarian
[10] = test system: OVCAR-5 ovarian
[11] = test system: OVCAR-8 ovarian
[12] = test system: SF-539 CNS
[13] = test system: SNB-19 CNS
[14] = test system: SR leukemia
[15] = test system: SW-620 colon
[16] = test system: UACC-257 melanoma
[17] = test system: UACC-62 melanoma
[18] = test system: RXF 393 renal

Question: What does the source list for `COC(=O)c1ccc(NCC2=CC(=O)C=CC2=O)cc1`?
Answer: TGI [1]: 41.8 µM; TGI [2]: 8.67 µM; TGI [3]: 28.2 µM; TGI [4]: 38.8 µM; TGI [5]: 34.1 µM; TGI [6]: 28.6 µM; TGI [7]: 30.7 µM; TGI [8]: 24.2 µM; TGI [9]: 35.5 µM; TGI [10]: 32.3 µM; TGI [11]: 39.9 µM; TGI [12]: 24.5 µM; TGI [13]: 28.2 µM; TGI [14]: 61 µM; TGI [15]: 25.9 µM; TGI [16]: 25.7 µM; TGI [17]: 29 µM

Question: How did the TGI [2] turn out when `C#CCCOC(=O)c1ccccc1OC(C)=O` was run?
Answer: The TGI was > 100 µM.

Question: And the TGI [3]?
Answer: Its TGI is > 100 µM.

Question: What about the TGI [5] of the same compound?
Answer: The TGI was > 100 µM.

Question: What about the TGI [6] of the same compound?
Answer: Its TGI is > 100 µM.

Question: And the TGI [7]?
Answer: Its TGI is > 100 µM.

Question: What about the TGI [8] of the same compound?
Answer: The TGI was > 100 µM.

Question: And the TGI [9]?
Answer: Its TGI is > 100 µM.

Question: And the TGI [10]?
Answer: Its TGI is > 100 µM.

Question: And the TGI [11]?
Answer: Its TGI is > 100 µM.

Question: And the TGI [18]?
Answer: Its TGI is > 100 µM.

Question: What about the TGI [12] of the same compound?
Answer: The TGI was > 100 µM.

Question: And the TGI [13]?
Answer: Its TGI is > 100 µM.

Question: What about the TGI [14] of the same compound?
Answer: Its TGI is > 100 µM.

Question: And the TGI [15]?
Answer: Its TGI is > 100 µM.

Question: What about the TGI [16] of the same compound?
Answer: The TGI was > 100 µM.

Question: What about the TGI [17] of the same compound?
Answer: Its TGI is > 100 µM.

Question: For `O=C(/C=C/c1ccc2c(c1)OCO2)CC(=O)/C=C/c1ccc2c(c1)OCO2`, which TGI [1] is on record?
Answer: The TGI was > 100 µM.

Question: What about the TGI [2] of the same compound?
Answer: The TGI was > 100 µM.

Question: And the TGI [3]?
Answer: The TGI was > 100 µM.

Question: What about the TGI [4] of the same compound?
Answer: The TGI was > 100 µM.

Question: And the TGI [5]?
Answer: Its TGI is 68.2 µM.

Question: What about the TGI [6] of the same compound?
Answer: The TGI was 10.8 µM.

Question: And the TGI [7]?
Answer: Its TGI is > 100 µM.

Question: What about the TGI [8] of the same compound?
Answer: Its TGI is > 100 µM.

Question: And the TGI [9]?
Answer: Its TGI is > 100 µM.

Question: What about the TGI [10] of the same compound?
Answer: The TGI was > 100 µM.

Question: And the TGI [18]?
Answer: Its TGI is > 100 µM.

Question: And the TGI [12]?
Answer: The TGI was > 100 µM.

Question: What about the TGI [13] of the same compound?
Answer: The TGI was > 100 µM.

Question: What about the TGI [14] of the same compound?
Answer: The TGI was 79.8 µM.

Question: What about the TGI [15] of the same compound?
Answer: Its TGI is > 100 µM.

Question: And the TGI [17]?
Answer: The TGI was > 100 µM.

Question: With `CC1c2cc(c3c(c2O)CN([C@@H](C)C2CCCCC2)CO3)C(C)c2cc(c3c(c2O)CN([C@@H](C)C2CCCCC2)CO3)C(C)c2cc(c3c(c2O)CN([C@@H](C)C2CCCCC2)CO3)C(C)c2cc1c1c(c2O)CN([C@@H](C)C2CCCCC2)CO1` (stereo partly drawn) as the compound, how does the TGI [1] read?
Answer: The TGI was > 100 µM.

Question: And the TGI [2]?
Answer: The TGI was 2.65 µM.

Question: And the TGI [3]?
Answer: Its TGI is 2.45 µM.

Question: What about the TGI [4] of the same compound?
Answer: The TGI was 2.82 µM.

Question: And the TGI [5]?
Answer: Its TGI is 2.61 µM.

Question: And the TGI [6]?
Answer: Its TGI is 2.15 µM.

Question: And the TGI [7]?
Answer: The TGI was 2.7 µM.

Question: And the TGI [8]?
Answer: The TGI was 3.04 µM.

Question: What about the TGI [9] of the same compound?
Answer: The TGI was 2.67 µM.

Question: And the TGI [10]?
Answer: The TGI was 4.04 µM.

Question: What about the TGI [11] of the same compound?
Answer: Its TGI is 2.4 µM.

Question: What about the TGI [18] of the same compound?
Answer: Its TGI is > 100 µM.

Question: And the TGI [13]?
Answer: The TGI was 3.44 µM.

Question: And the TGI [14]?
Answer: Its TGI is 1.44 µM.

Question: And the TGI [16]?
Answer: Its TGI is 3.24 µM.

Question: And the TGI [17]?
Answer: Its TGI is 3.86 µM.

Question: Which TGI [1] does the source give for `C=C(CN)CO[Si](C)(C)C(C)(C)C` here?
Answer: Its TGI is > 100 µM.

Question: What about the TGI [2] of the same compound?
Answer: The TGI was > 100 µM.

Question: And the TGI [3]?
Answer: The TGI was > 100 µM.

Question: And the TGI [4]?
Answer: The TGI was > 100 µM.

Question: What about the TGI [5] of the same compound?
Answer: The TGI was > 100 µM.

Question: What about the TGI [6] of the same compound?
Answer: The TGI was > 100 µM.

Question: And the TGI [7]?
Answer: The TGI was > 100 µM.

Question: And the TGI [8]?
Answer: The TGI was > 100 µM.

Question: What about the TGI [9] of the same compound?
Answer: The TGI was > 100 µM.

Question: And the TGI [10]?
Answer: The TGI was > 100 µM.

Question: And the TGI [11]?
Answer: Its TGI is > 100 µM.

Question: What about the TGI [12] of the same compound?
Answer: The TGI was > 100 µM.

Question: And the TGI [13]?
Answer: Its TGI is > 100 µM.

Question: What about the TGI [14] of the same compound?
Answer: The TGI was > 100 µM.

Question: What about the TGI [15] of the same compound?
Answer: The TGI was > 100 µM.

Question: And the TGI [16]?
Answer: Its TGI is > 100 µM.

Question: What about the TGI [17] of the same compound?
Answer: Its TGI is > 100 µM.

Question: With `CC1=C2CN(C(=O)OCC(C)C)CCC2C2=C(C(=O)c3ccccc3C2=O)C1C` (stereo not drawn) as the compound, how does the TGI [1] read?
Answer: The TGI was > 10 µM.

Question: What about the TGI [2] of the same compound?
Answer: The TGI was > 10 µM.

Question: What about the TGI [3] of the same compound?
Answer: Its TGI is > 10 µM.

Question: And the TGI [4]?
Answer: The TGI was > 10 µM.

Question: And the TGI [5]?
Answer: Its TGI is > 10 µM.

Question: And the TGI [6]?
Answer: The TGI was > 10 µM.

Question: And the TGI [7]?
Answer: The TGI was > 10 µM.

Question: What about the TGI [8] of the same compound?
Answer: The TGI was > 10 µM.

Question: And the TGI [11]?
Answer: Its TGI is > 10 µM.

Question: What about the TGI [18] of the same compound?
Answer: Its TGI is > 10 µM.

Question: What about the TGI [14] of the same compound?
Answer: Its TGI is > 10 µM.

Question: What about the TGI [15] of the same compound?
Answer: Its TGI is > 10 µM.

Question: And the TGI [16]?
Answer: Its TGI is > 10 µM.

Question: And the TGI [17]?
Answer: The TGI was > 10 µM.

Question: With `Cc1nnc2n1N=C(c1cc(F)c(Cl)cc1Cl)/C(=C/c1ccc3c(c1)OCO3)S2` as the compound, how does the TGI [1] read?
Answer: Its TGI is > 100 µM.

Question: And the TGI [2]?
Answer: Its TGI is > 100 µM.

Question: And the TGI [3]?
Answer: Its TGI is 84.3 µM.

Question: And the TGI [4]?
Answer: Its TGI is > 100 µM.

Question: And the TGI [5]?
Answer: The TGI was > 100 µM.

Question: And the TGI [6]?
Answer: Its TGI is > 100 µM.

Question: What about the TGI [7] of the same compound?
Answer: Its TGI is > 100 µM.

Question: What about the TGI [8] of the same compound?
Answer: Its TGI is > 100 µM.

Question: And the TGI [9]?
Answer: Its TGI is > 100 µM.

Question: What about the TGI [10] of the same compound?
Answer: Its TGI is > 100 µM.

Question: What about the TGI [11] of the same compound?
Answer: Its TGI is > 100 µM.

Question: What about the TGI [18] of the same compound?
Answer: The TGI was > 100 µM.

Question: And the TGI [12]?
Answer: The TGI was > 100 µM.

Question: And the TGI [13]?
Answer: Its TGI is > 100 µM.

Question: And the TGI [15]?
Answer: The TGI was > 100 µM.

Question: And the TGI [16]?
Answer: Its TGI is > 100 µM.

Question: What about the TGI [17] of the same compound?
Answer: Its TGI is > 100 µM.
